Legend:
Type in all cases: functional
SW-620 = test: Cytotoxicity against human SW620 cells assessed as growth inhibition after 48 hrs by sulforhodamine B assay; settings: SW-620, 48 h
MDA-MB-435 [1] = test: Cytotoxicity against human MDA-MB-435 cells assessed as cell growth at 10 uM after 48 hrs by sulforhodamine B assay relative to control; settings: MDA-MB-435, 48 h, read-out: Activity
HCT-116 = test: Cytotoxicity against human HCT116 cells assessed as cell growth at 1 uM after 48 hrs by sulforhodamine B assay relative to control; settings: HCT-116, 48 h, read-out: Activity
A549 [2] = test: Cytotoxicity against human A549/ATCC cells assessed as cell growth at 0.01 uM after 48 hrs by sulforhodamine B assay relative to control; settings: A549, 48 h, read-out: Activity
MCF7 = test: Cytotoxicity against human MCF7 cells assessed as cell growth at 100 uM after 48 hrs by sulforhodamine B assay relative to control; settings: MCF7, 48 h, read-out: Activity
A549 [3] = test: Cytotoxicity against human A549/ATCC cells assessed as cell growth at 1 uM after 48 hrs by sulforhodamine B assay relative to control; settings: A549, 48 h, read-out: Activity
NCI-H322M = test: Cytotoxicity against human NCI-H322M cells assessed as cell growth at 0.01 uM after 48 hrs by sulforhodamine B assay relative to control; settings: read-out: Activity
HCT-15 = test: Cytotoxicity against human HCT15 cells assessed as cell growth at 0.01 uM after 48 hrs by sulforhodamine B assay relative to control; settings: HCT-15, 48 h, read-out: Activity
RPMI-8226 [4] = test: Cytotoxicity against human RPMI8226 cells assessed as growth inhibition after 48 hrs by sulforhodamine B assay; settings: RPMI-8226, 48 h
MOLT-4 [5] = test: Cytotoxicity against human MOLT4 cells assessed as cell growth at 100 uM after 48 hrs by sulforhodamine B assay relative to control; settings: MOLT-4, 48 h, read-out: Activity
UO-31 = test: Cytotoxicity against human UO31 cells assessed as cell growth at 1 uM after 48 hrs by sulforhodamine B assay relative to control; settings: UO-31, 48 h, read-out: Activity
MDA-MB-435 [6] = test: Cytotoxicity against human MDA-MB-435 cells assessed as cell growth at 1 uM after 48 hrs by sulforhodamine B assay relative to control; settings: MDA-MB-435, 48 h, read-out: Activity
COLO 205 [7] = test: Cytotoxicity against human COLO205 cells assessed as cell growth at 0.1 uM after 48 hrs by sulforhodamine B assay relative to control; settings: COLO 205, 48 h, read-out: Activity
HCC 2998 [8] = test: Cytotoxicity against human HCC2998 cells assessed as growth inhibition after 48 hrs by sulforhodamine B assay; settings: HCC 2998, 48 h
MOLT-4 [9] = test: Cytotoxicity against human MOLT4 cells assessed as cell growth at 0.1 uM after 48 hrs by sulforhodamine B assay relative to control; settings: MOLT-4, 48 h, read-out: Activity
SR = test: Cytotoxicity against human SR cells assessed as growth inhibition after 48 hrs by sulforhodamine B assay; settings: for CC50: read-out: LC50 (the source's name)
SNB-19 = test: Cytotoxicity against human SNB19 cells assessed as growth inhibition after 48 hrs by sulforhodamine B assay; settings: SNB-19, 48 h; for CC50: read-out: LC50 (the source's name)
SK-OV-3 = test: Cytotoxicity against human SKOV3 cells assessed as growth inhibition after 48 hrs by sulforhodamine B assay; settings: SK-OV-3, 48 h
M14 = test: Cytotoxicity against human M14 cells assessed as cell growth at 100 uM after 48 hrs by sulforhodamine B assay relative to control; settings: M14, 48 h, read-out: Activity
SN12C [10] = test: Cytotoxicity against human SN12C cells assessed as cell growth at 0.1 uM after 48 hrs by sulforhodamine B assay relative to control; settings: read-out: Activity
A549 [11] = test: Cytotoxicity against human A549/ATCC cells assessed as growth inhibition after 48 hrs by sulforhodamine B assay; settings: A549, 48 h
U-251 = test: Cytotoxicity against human U251 cells assessed as cell growth at 1 uM after 48 hrs by sulforhodamine B assay relative to control; settings: U-251, 48 h, read-out: Activity
OVCAR-5 = test: Cytotoxicity against human OVCAR5 cells assessed as growth inhibition after 48 hrs by sulforhodamine B assay; settings: OVCAR-5, 48 h
TK-10 = test: Cytotoxicity against human TK10 cells assessed as cell growth at 100 uM after 48 hrs by sulforhodamine B assay relative to control; settings: TK-10, 48 h, read-out: Activity
K562 = test: Cytotoxicity against human K562 cells assessed as cell growth at 1 uM after 48 hrs by sulforhodamine B assay relative to control; settings: K562, 48 h, read-out: Activity
786-0 = test: Cytotoxicity against human 786-0 cells assessed as cell growth at 0.1 uM after 48 hrs by sulforhodamine B assay relative to control; settings: 786-0, 48 h, read-out: Activity
HCC 2998 [12] = test: Cytotoxicity against human HCC2998 cells assessed as cell growth at 0.01 uM after 48 hrs by sulforhodamine B assay relative to control; settings: HCC 2998, 48 h, read-out: Activity
T47D [13] = test: Cytotoxicity against human T47D cells assessed as cell growth at 10 uM after 48 hrs by sulforhodamine B assay relative to control; settings: read-out: Activity
T47D [14] = test: Cytotoxicity against human T47D cells assessed as cell growth at 0.1 uM after 48 hrs by sulforhodamine B assay relative to control; settings: read-out: Activity
OVCAR-4 = test: Cytotoxicity against human OVCAR4 cells assessed as cell growth at 1 uM after 48 hrs by sulforhodamine B assay relative to control; settings: OVCAR-4, 48 h, read-out: Activity
ACHN = test: Cytotoxicity against human ACHN cells assessed as cell growth at 0.01 uM after 48 hrs by sulforhodamine B assay relative to control; settings: read-out: Activity
A498 = test: Cytotoxicity against human A498 cells assessed as growth inhibition after 48 hrs by sulforhodamine B assay; settings: A498, 48 h
COLO 205 [15] = test: Cytotoxicity against human COLO205 cells assessed as cell growth at 10 uM after 48 hrs by sulforhodamine B assay relative to control; settings: COLO 205, 48 h, read-out: Activity
SN12C [16] = test: Cytotoxicity against human SN12C cells assessed as cell growth at 0.01 uM after 48 hrs by sulforhodamine B assay relative to control; settings: read-out: Activity
Hs-578T = test: Cytotoxicity against human Hs 578T cells assessed as cell growth at 0.1 uM after 48 hrs by sulforhodamine B assay relative to control; settings: read-out: Activity
RPMI-8226 [17] = test: Cytotoxicity against human RPMI8226 cells assessed as cell growth at 0.1 uM after 48 hrs by sulforhodamine B assay relative to control; settings: RPMI-8226, 48 h, read-out: Activity

## COc1cc(C(=O)/C=C/c2cc(-c3cc(OC)c(OC)c(OC)c3)n[nH]2)cc(OC)c1OC
SW-620
  LC50 (lethal concentration, 50% net cell kill): 5.97 µM
  TGI: 3.08 µM
MDA-MB-435 [1]
  growth at 10 µM: -90%
HCT-116
  growth at 1 µM: 70%
A549 [2]
  growth at 0.01 µM: 97%
MCF7
  growth at 100 µM: -72%
A549 [3]
  growth at 1 µM: 84%
NCI-H322M
  growth at 0.01 µM: 96%
HCT-15
  growth at 0.01 µM: 95%
RPMI-8226 [4]
  LC50: > 100 µM
  TGI: 2.06 µM
MOLT-4 [5]
  growth at 100 µM: -15%
UO-31
  growth at 1 µM: 62%
MDA-MB-435 [6]
  growth at 1 µM: 79%
COLO 205 [7]
  growth at 0.1 µM: 102%
HCC 2998 [8]
  LC50: 6.31 µM
  TGI: 3.39 µM
MOLT-4 [9]
  growth at 0.1 µM: 112%
SR
  TGI: > 100 µM
  CC50: > 100 µM
SNB-19
  TGI: 3.69 µM
  CC50: 8.2 µM
SK-OV-3
  LC50: 33.4 µM
  TGI: 11.1 µM
M14
  growth at 100 µM: -88%
SN12C [10]
  growth at 0.1 µM: 98%
A549 [11]
  LC50 (concentration giving 50% net cell kill): 59.2 µM
  TGI: 12.1 µM
U-251
  growth at 1 µM: 83%
OVCAR-5
  LC50: 5.92 µM
  TGI: 3.12 µM
TK-10
  growth at 100 µM: -99%
K562
  growth at 1 µM: 94%
786-0
  growth at 0.1 µM: 105%
HCC 2998 [12]
  growth at 0.01 µM: 102%
T47D [13]
  growth at 10 µM: -82%
T47D [14]
  growth at 0.1 µM: 92%
OVCAR-4
  growth at 1 µM: 79%
ACHN
  growth at 0.01 µM: 103%
A498
  LC50: 8.02 µM
  TGI: 3.59 µM
COLO 205 [15]
  growth at 10 µM: -100%
SN12C [16]
  growth at 0.01 µM: 96%
Hs-578T
  growth at 0.1 µM: 90%
RPMI-8226 [17]
  growth at 0.1 µM: 83%

## COc1cc(-c2cc(/C=C/C(=O)c3ccc(N)cc3)[nH]n2)cc(OC)c1OC
SW-620
  GI50: 2.05 µM
  LC50 (lethal concentration, 50% net cell kill): > 100 µM
  TGI: 6.37 µM
MDA-MB-435 [1]
  growth at 10 µM: -86%
HCT-116
  growth at 1 µM: 56%
A549 [2]
  growth at 0.01 µM: 96%
MCF7
  growth at 100 µM: -57%
A549 [3]
  growth at 1 µM: 80%
NCI-H322M
  growth at 0.01 µM: 95%
HCT-15
  growth at 0.01 µM: 92%
RPMI-8226 [4]
  GI50: 0.47 µM
  LC50: > 100 µM
  TGI: 2.77 µM
MOLT-4 [5]
  growth at 100 µM: -20%
UO-31
  growth at 1 µM: 71%
MDA-MB-435 [6]
  growth at 1 µM: 88%
COLO 205 [7]
  growth at 0.1 µM: 100%
HCC 2998 [8]
  GI50: 2.01 µM
  LC50: 6.53 µM
  TGI: 3.63 µM
MOLT-4 [9]
  growth at 0.1 µM: 102%
SR
  GI50: 0.32 µM
  TGI: 2.75 µM
  CC50: > 100 µM
SNB-19
  GI50: 2.34 µM
  TGI: 9.98 µM
  CC50: 34 µM
SK-OV-3
  GI50: 2.99 µM
  LC50: 28.9 µM
  TGI: 8.32 µM
M14
  growth at 100 µM: -78%
SN12C [10]
  growth at 0.1 µM: 99%
A549 [11]
  GI50: 2.08 µM
  LC50 (concentration giving 50% net cell kill): 86.5 µM
  TGI: 7.02 µM
U-251
  growth at 1 µM: 76%
OVCAR-5
  GI50: 1.78 µM
  LC50: 7.91 µM
  TGI: 3.75 µM
TK-10
  growth at 100 µM: -81%
K562
  growth at 1 µM: 43%
786-0
  growth at 0.1 µM: 94%
HCC 2998 [12]
  growth at 0.01 µM: 108%
T47D [13]
  growth at 10 µM: -38%
T47D [14]
  growth at 0.1 µM: 85%
OVCAR-4
  growth at 1 µM: 62%
ACHN
  growth at 0.01 µM: 95%
A498
  GI50: 1.64 µM
  LC50: 13.4 µM
  TGI: 4.33 µM
COLO 205 [15]
  growth at 10 µM: -84%
SN12C [16]
  growth at 0.01 µM: 98%
Hs-578T
  growth at 0.1 µM: 88%
RPMI-8226 [17]
  growth at 0.1 µM: 97%

Reference: ChEMBL document CHEMBL4138123, “Design, synthesis and biological evaluation of novel pyrazolochalcones as potential modulators of PI3K/Akt/mTOR pathway and inducers of apoptosis in breast cancer cells” (Eur J Med Chem, 2017)
